Results reported in PubChem BioAssay (NCI).
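How tested: cells in 96-well plates exposed to compound for 48 hours at five concentrations. GI50: concentration for 50% inhibition of growth. Definition used: TGI = concentration required for complete inhibition of growth.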

Assays:
Test in all cases: DTP human tumour cell line panel, 48 h
[1] = system: T-47D breast
[2] = system: HT29 colon
[3] = system: HCT-116 colon
[4] = system: OVCAR-8 ovarian
[5] = system: OVCAR-5 ovarian
[6] = system: SNB-75 CNS
[7] = system: NCI-H23 lung
[8] = system: 786-0 renal
[9] = system: M14 melanoma
[10] = system: MDA-MB-468 breast
[11] = system: A498 renal
[12] = system: SF-268 CNS
[13] = system: SR leukemia
[14] = system: KM12 colon
[15] = system: SK-MEL-28 melanoma
[16] = system: DU-145 prostate
[17] = system: TK-10 renal
[18] = system: MOLT-4 leukemia
[19] = system: OVCAR-3 ovarian
[20] = system: K-562 leukemia
[21] = system: SN12C renal
[22] = system: A549 NSCLC
[23] = system: HL-60(TB) leukemia
[24] = system: BT-549 breast
[25] = system: SNB-19 CNS
[26] = system: LOX IMVI melanoma
[27] = system: NCI-H522 lung
[28] = system: SK-OV-3 ovarian
[29] = system: IGROV1 ovarian
[30] = system: PC-3 prostate
[31] = system: SW-620 colon
[32] = system: UO-31 renal
[33] = system: MCF7 breast
[34] = system: COLO 205 colon
[35] = system: SK-MEL-5 melanoma
[36] = system: RXF 393 renal
[37] = system: MALME-3M melanoma
[38] = system: HCT-15 colon
[39] = system: MDA-MB-231 breast
[40] = system: SF-295 CNS
[41] = system: U251 CNS
[42] = system: NCI-H460 lung
[43] = system: ACHN renal
[44] = system: NCI-H226 lung
[45] = system: SK-MEL-2 melanoma
[46] = system: HOP-92 NSCLC
[47] = system: HS 578T breast
[48] = system: CAKI-1 renal
[49] = system: MDA-MB-435
[50] = system: HCC-2998 colon
[51] = system: UACC-257 melanoma
[52] = system: HOP-62 NSCLC
[53] = system: EKVX NSCLC
[54] = system: NCI/ADR-RES ovarian
[55] = system: OVCAR-4 ovarian
[56] = system: CCRF-CEM leukemia
[57] = system: UACC-62 melanoma
[58] = system: SF-539 CNS
[59] = system: RPMI-8226 leukemia

SMILES: COc1ccc(-c2nc(S(=O)(=O)c3ccc(C)cc3)c(S(=O)(=O)CC(=O)N(C)Cc3ccccc3)o2)cc1
- GI50 [1]: 6.28 µM
- TGI [1]: 25.2 µM
- GI50 [2]: 9.39 µM
- TGI [2]: 30.5 µM
- GI50 [3]: 5.02 µM
- TGI [3]: 19.6 µM
- GI50 [4]: 13.3 µM
- TGI [4]: 28.9 µM
- GI50 [5]: 12.8 µM
- TGI [5]: 25.5 µM
- GI50 [6]: 4.82 µM
- TGI [6]: 18.7 µM
- GI50 [7]: 12.5 µM
- TGI [7]: 25.7 µM
- GI50 [8]: 8.89 µM
- TGI [8]: 23 µM
- GI50 [9]: 12.4 µM
- TGI [9]: 30.8 µM
- GI50 [10]: 2.41 µM
- TGI [10]: 8 µM
- GI50 [11]: 13.5 µM
- TGI [11]: 26.8 µM
- GI50 [12]: 12.1 µM
- TGI [12]: 29.7 µM
- GI50 [13]: 3.27 µM
- TGI [13]: > 100 µM
- GI50 [14]: 15.8 µM
- TGI [14]: 32.3 µM
- GI50 [15]: 14.3 µM
- TGI [15]: 27.3 µM
- GI50 [16]: 10.2 µM
- TGI [16]: 21.8 µM
- GI50 [17]: 13.2 µM
- TGI [17]: 26.5 µM
- GI50 [18]: 4.73 µM
- TGI [18]: > 100 µM
- GI50 [19]: 4.25 µM
- TGI [19]: 16.2 µM
- GI50 [20]: 4.72 µM
- TGI [20]: > 100 µM
- GI50 [21]: 10.5 µM
- TGI [21]: 22.3 µM
- GI50 [22]: 14.6 µM
- TGI [22]: 33.6 µM
- GI50 [23]: 16.3 µM
- TGI [23]: > 100 µM
- GI50 [24]: 12.3 µM
- TGI [24]: 26 µM
- GI50 [25]: 14.4 µM
- TGI [25]: 27.5 µM
- GI50 [26]: 2.79 µM
- TGI [26]: 10.2 µM
- GI50 [27]: 2.19 µM
- TGI [27]: 6.94 µM
- GI50 [28]: 30.5 µM
- TGI [28]: > 100 µM
- GI50 [29]: 11.1 µM
- TGI [29]: 23.5 µM
- GI50 [30]: 12.1 µM
- TGI [30]: 44.9 µM
- GI50 [31]: 4.25 µM
- TGI [31]: 17.5 µM
- GI50 [32]: 10.3 µM
- TGI [32]: 22 µM
- GI50 [33]: 3.89 µM
- TGI [33]: 16.8 µM
- GI50 [34]: 12.2 µM
- TGI [34]: 41.7 µM
- GI50 [35]: 14.3 µM
- TGI [35]: 27.7 µM
- GI50 [36]: 5.05 µM
- TGI [36]: 16.9 µM
- GI50 [37]: 14.8 µM
- TGI [37]: 29.6 µM
- GI50 [38]: 6.17 µM
- TGI [38]: 20.8 µM
- GI50 [39]: 9.27 µM
- TGI [39]: 21.6 µM
- GI50 [40]: 12.7 µM
- TGI [40]: 25.5 µM
- GI50 [41]: 15.4 µM
- TGI [41]: 29.1 µM
- GI50 [42]: 8.2 µM
- TGI [42]: 23.3 µM
- GI50 [43]: 10.8 µM
- TGI [43]: 22.7 µM
- GI50 [44]: 14.8 µM
- TGI [44]: 39.6 µM
- GI50 [45]: 13.8 µM
- TGI [45]: 27.4 µM
- GI50 [46]: 14 µM
- TGI [46]: 39.2 µM
- GI50 [47]: 4.85 µM
- TGI [47]: 33.5 µM
- GI50 [48]: 5.76 µM
- TGI [48]: 18.6 µM
- GI50 [49]: 7.32 µM
- TGI [49]: 31.1 µM
- GI50 [50]: 13.3 µM
- TGI [50]: 26.1 µM
- GI50 [51]: 13.1 µM
- TGI [51]: 26.3 µM
- GI50 [52]: 16 µM
- TGI [52]: 32.5 µM
- GI50 [53]: 11.7 µM
- TGI [53]: 25.2 µM
- GI50 [54]: 15.2 µM
- TGI [54]: 45.2 µM
- GI50 [55]: 14.2 µM
- TGI [55]: 36.7 µM
- GI50 [56]: 3.5 µM
- TGI [56]: > 100 µM
- GI50 [57]: 11.7 µM
- TGI [57]: 23.9 µM
- GI50 [58]: 10.7 µM
- TGI [58]: 22.5 µM
- GI50 [59]: 4.45 µM
- TGI [59]: > 100 µM
